# From US20260248938A1, “COMBINATION OF ANTI-CDH6 ANTIBODY-DRUG CONJUGATE AND HIF-2alpha INHIBITOR” (DAIICHI SANKYO COMPANY, LIMITED, priority 2023, published 2026)
# What was measured:
# Topoisomerase I = target: T1, Topoisomerase I (Homo sapiens, UniProt P11387); settings: Ogitani Y. et al., Clinical Cancer Research 2016; cited from earlier work
# T1 sequence (P11387 1-765): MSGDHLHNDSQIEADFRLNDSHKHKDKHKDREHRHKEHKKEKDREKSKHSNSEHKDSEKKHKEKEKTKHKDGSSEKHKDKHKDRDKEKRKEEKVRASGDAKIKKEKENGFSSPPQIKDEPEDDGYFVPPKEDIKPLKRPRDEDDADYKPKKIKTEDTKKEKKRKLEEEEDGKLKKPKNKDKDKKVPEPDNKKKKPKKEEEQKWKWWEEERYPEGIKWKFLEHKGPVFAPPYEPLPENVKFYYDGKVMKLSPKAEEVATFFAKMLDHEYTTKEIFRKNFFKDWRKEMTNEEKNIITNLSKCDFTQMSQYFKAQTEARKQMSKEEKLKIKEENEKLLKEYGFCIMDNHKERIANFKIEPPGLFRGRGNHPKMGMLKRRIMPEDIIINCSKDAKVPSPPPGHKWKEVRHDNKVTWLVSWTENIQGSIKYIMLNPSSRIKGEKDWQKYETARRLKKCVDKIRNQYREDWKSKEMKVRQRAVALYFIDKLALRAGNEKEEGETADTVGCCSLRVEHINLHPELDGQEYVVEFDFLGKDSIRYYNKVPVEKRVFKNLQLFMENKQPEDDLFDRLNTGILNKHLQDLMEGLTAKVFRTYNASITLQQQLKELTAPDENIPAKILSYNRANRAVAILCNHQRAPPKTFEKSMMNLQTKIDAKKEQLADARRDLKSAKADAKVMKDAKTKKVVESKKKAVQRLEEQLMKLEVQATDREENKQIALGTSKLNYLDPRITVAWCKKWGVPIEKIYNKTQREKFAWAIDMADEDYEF
# [1] = tested on: Human kidney cancer cell line 786-O cells; format: in vivo; settings: 786-O subcutaneous xenograft, nude mice, ADC (1) 1 mg/kg i.v. on Day 0, belzutifan 0.3 mg/kg orally once daily, five times a week for 3 weeks
# Method: Mouse: Six-week-old female BALB/c nude mice (The Jackson Laboratory Japan, Inc.) were subjected to an experiment.
# Measurement and calculation expression: The long diameter and short diameter of each tumor were measured twice a week using electronic digital calipers (CD-15CX, Mitutoyo Corp.), and the volume of the tumor was then calculated. The following expression was used in the calculation.
# The anti-CDH6 antibody-drug conjugate (1) was diluted with ABS buffer (10 mM acetate buffer (pH 5.5), 5% sorbitol), and the dilution was intravenously administered at a dose of 10 mL/kg to the tail of each mouse. Belzutifan was suspended in 10% dimethyl sulfoxide, 40% polyethylene glycol 300, 5% Tween-80, and 45% physiological saline, and the suspension was administered orally at a dose of 10 mL/kg.
# Human kidney cancer cell line 786-O cells purchased from ATCC (American Type Culture Collection) were suspended in Matrigel Matrix, and the cell suspension was subcutaneously inoculated at a dose of 4×10^6 cells to the right flank region of each female nude mouse. […]
# Tumor growth inhibition (TGI) is calculated according to the following expression.
# Change from baseline (%) (percentage change of average tumor volume on Day 21 from an average tumor volume on Day 0 as a baseline) was calculated according to the following expression, and is shown in FIG. 15.
Compound,Topoisomerase I inhibitory effect (Topoisomerase I),Tumor growth inhibition (TGI) ([1]; Day 21),Change from baseline (%) (percentage change of average tumor volume on Day 21 from average tumor volume on Day 0) ([1]; Day 21 vs Day 0)
CC[C@@]1(O)C(=O)OCc2c1cc1n(c2=O)Cc2c-1nc1cc(F)c(C)c3c1c2[C@@H](NC(=O)CO)CC3 [compound (A)],confirmed to have a topoisomerase I inhibitory effect,–,–
"CS(=O)(=O)c1ccc(Oc2cc(F)cc(C#N)c2)c2c1[C@H](O)[C@H](F)[C@@H]2F [Belzutifan, belzutifan]",–,29%,53%
